Data from the NIST ThermoML archive (doi:10.1021/je400977r).

Assay: mn = molality of the nth substance listed, in mol/kg
Settings: 101 kPa, Liquid; for speed of sound: Pulse-echo method

O=C[C@H](O)[C@H](O)[C@H](O)CO [D-ribose] + O
Settings	mass density, 293.15 K [kg/m3]	mass density, 298.15 K [kg/m3]	mass density, 303.15 K [kg/m3]	mass density, 308.15 K [kg/m3]	mass density, 313.15 K [kg/m3]	speed of sound, 293.15 K [m/s]	speed of sound, 298.15 K [m/s]	speed of sound, 303.15 K [m/s]	speed of sound, 308.15 K [m/s]	speed of sound, 313.15 K [m/s]
m1 = 0.05	1001.07	999.887	998.463	996.819	994.955	1485.2	1499.2	1511.3	1521.9	1530.9
m1 = 0.055	1001.36	1000.17	998.749	997.103	995.237	1485.4	1499.4	1511.5	1522	1531
m1 = 0.06	1001.65	1000.47	999.035	997.383	995.517	1485.6	1499.5	1511.6	1522.2	1531.2
m1 = 0.065	1001.94	1000.75	999.317	997.667	995.796	1485.8	1499.7	1511.8	1522.3	1531.3
m1 = 0.07	1002.23	1001.04	999.606	997.954	996.076	1485.9	1499.8	1511.9	1522.5	1531.4
m1 = 0.075	1002.52	1001.33	999.887	998.237	996.357	1486.1	1500	1512	1522.6	1531.6
m1 = 0.08	1002.82	1001.62	1000.17	998.519	996.637	1486.2	1500.1	1512.2	1522.7	1531.7
m1 = 0.085	1003.11	1001.91	1000.47	998.806	996.917	1486.4	1500.2	1512.2	1522.8	1531.8
m1 = 0.09	1003.4	1002.21	1000.75	999.089	997.196	1486.5	1500.3	1512.4	1523	1532
m1 = 0.1	1003.98	1002.79	1001.33	999.652	997.754	1486.8	1500.6	1512.6	1523.2	1532.2

CC(C)C[C@H](N)C(=O)O [L-leucine] + O
Settings	mass density, 293.15 K [kg/m3]	mass density, 298.15 K [kg/m3]	mass density, 303.15 K [kg/m3]	mass density, 308.15 K [kg/m3]	mass density, 313.15 K [kg/m3]	speed of sound, 293.15 K [m/s]	speed of sound, 298.15 K [m/s]	speed of sound, 303.15 K [m/s]	speed of sound, 308.15 K [m/s]	speed of sound, 313.15 K [m/s]
m1 = 0.025	998.94	997.765	996.352	994.719	992.893	1486.2	1500.2	1512.3	1522.8	1531.7
m1 = 0.05	999.543	998.36	996.938	995.302	993.464	1489.2	1502.9	1515	1525.4	1534.2
m1 = 0.1	1000.6	999.369	997.956	996.293	994.341	1495.2	1508.8	1520.6	1530.8	1539.4
